Entries after “also recorded” stand apart in the source; their conditions may differ.
Legend:
U87MG tumor = U87MG tumor growth and survival in mice after various treatments; assay type: in vivo, nude mouse; settings: for median survival time: mice with U87MG tumor, n=6 per group
Description: In all different experimental groups (a and b in FIG. 10), the overall survival (OS) of mice treated with TMZ and compound 27 is the best. […] However, mouse death caused by glioma is reduced only 20 days […] treatment. After this period of time, the survival rates of the in-situ U87 heterogeneous tumor of the two single drug groups decreases rapidly due to malignant glioma.

[1] = Plasma pharmacokinetics in mice determined by GLMSD; assay type: in vivo, mouse; settings: ip, TMZ injected into abdominal cavity of mouse, plasma, average of 8 mice
Description: It can be seen from FIG. 8-1 that the GLMSD platform can specifically acquire the pharmacokinetic data of small-molecule compound 27. Competitive advantages of GLMSD in pharmacokinetic research: (1) a complete drug blood concentration curve of each individual may be tracked; and (2) the total number of mice used in the test is reduced. Since the blood sample consumption of the GLMSD method is low (10 μL of blood per time point), one mouse can be used for completing the entire pharmacokinetic curve (blood sampling at 11 time points within 24 hours, and the minimum interval being 0.25 hour) of a drug.
Based on the advantage that the complete PK curve can be tested by means of the GLMSD, we observe that 3 (#2, #3 and #4) in 8 mice have the characteristic re-absorption peak of this small-molecule inhibitor at the time point of 8 h, and such a characteristic re-absorption peak hardly exists in other 5 mice. This significant phenomenon is related to drug uptake differences between individuals, prompting that compound 27 may re-enter blood circulation by means of a secondary absorption pathway. In the mode of continuous multiple administration (c in FIG. 8-2), pharmacokinetic data of compound 27 (40 mg/kg) was collected from each mouse every day (1, 3, 6, and 8 hours after last administration) for 5 days. For a single dose (a in FIG. 8-2) or a continuous multi-dose (d in FIG. 8-2) administration manner, a limitation of a conventional LC-MS technology lies in obtaining a single data point of pharmacokinetics of a drug by sacrificing one mouse, whereas GLMSD can break through this limitation by providing a complete pharmacokinetic curve based on a single mouse.

hexokinase 2 (HK2) = target: T1, hexokinase 2 (HK2) (Homo sapiens, UniProt P52789); test: HK2 activity test on GLMSD platform (graphite dots MALDI-MS); assay type: biochemical; settings: for inhibitory effect on the HK2: inhibition curves FIGS. 3-7, colorimetric kit and GLMSD; for inhibition at 20 µM: read-out: inhibition rate of HK2 activity
T1 sequence (P52789 1-917): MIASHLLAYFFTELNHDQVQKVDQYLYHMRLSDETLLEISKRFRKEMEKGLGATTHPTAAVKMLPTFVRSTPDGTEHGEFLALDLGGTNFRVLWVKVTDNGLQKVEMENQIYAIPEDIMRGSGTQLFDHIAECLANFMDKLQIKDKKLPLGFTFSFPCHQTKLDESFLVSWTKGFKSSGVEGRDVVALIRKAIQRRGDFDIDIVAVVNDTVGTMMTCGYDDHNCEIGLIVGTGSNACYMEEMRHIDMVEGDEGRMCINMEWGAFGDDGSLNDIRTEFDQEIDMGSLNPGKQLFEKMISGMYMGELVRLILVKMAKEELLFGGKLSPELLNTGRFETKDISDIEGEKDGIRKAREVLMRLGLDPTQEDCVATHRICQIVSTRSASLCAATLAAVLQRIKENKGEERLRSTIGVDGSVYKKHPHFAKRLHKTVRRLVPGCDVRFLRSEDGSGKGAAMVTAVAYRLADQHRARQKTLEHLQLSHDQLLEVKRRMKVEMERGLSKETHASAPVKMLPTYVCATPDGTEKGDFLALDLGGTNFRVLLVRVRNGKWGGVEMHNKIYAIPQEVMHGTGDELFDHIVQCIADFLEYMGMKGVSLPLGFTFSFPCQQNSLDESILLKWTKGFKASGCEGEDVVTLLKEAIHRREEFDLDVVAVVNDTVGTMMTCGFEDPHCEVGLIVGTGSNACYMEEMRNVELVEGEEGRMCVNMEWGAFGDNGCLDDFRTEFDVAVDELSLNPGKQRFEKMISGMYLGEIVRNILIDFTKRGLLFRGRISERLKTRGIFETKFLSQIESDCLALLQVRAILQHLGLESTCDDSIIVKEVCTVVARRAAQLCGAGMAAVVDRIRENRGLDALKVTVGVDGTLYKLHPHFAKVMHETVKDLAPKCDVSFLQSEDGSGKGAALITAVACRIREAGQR
Description: GDs were dispersed in water at a concentration of 1 mg/mL as a matrix solution to be used. A sample was prepared by using a quick-drying method: firstly, 1 μL of matrix solution was dropped onto a target plate, and after natural drying at a room temperature in a […], 1 μL of sample to be analyzed was dropped onto a surface of the dried matrix, and after the sample was naturally dried, mass spectrometry was directly performed:
An instrument in the MALDI-MS was a Bruker Ultraflex III TOF/TOF mass spectrometer, which was mainly in a reflection positive and negative ion mode. Nd of 355 nm for instrument parameter: YAG laser had laser energy of 30% corresponding to 57 μJ per pulse (laser pulse duration: 3 ns), a laser spot size was about 50-100 μm, each sample was repeatedly tested four times, and 3000 laser spots were accumulated in each mass spectrum. All samples were measured under the same instrumental conditions.
an inhibition rate=(1−B/A)×100%, where • A was: a glucose concentration in a pre-reaction solution without the inhibitor-a glucose concentration in a post-reaction solution without the inhibitor, • B was: a glucose concentration in a pre-reaction solution with the inhibitor-a glucose concentration in a post-reaction solution with the inhibitor, and • a glucose concentration in the reaction solution=(mass spectrum signal strength of [glucose+Na]+/mass spectrum signal strength of [glucose-1-^13C+Na]+)×known concentration of glucose-1-^13C.

[2] = system: cranial nerve glioma cell U87; test: Antiproliferative activity against cranial nerve glioma cell U87; assay type: cell-based; settings: U87 cells, FIG. 14
Description: FIG. 14 is an antiproliferative activity test diagram of compound 8, compound 11, compound 13, and compound 21 against a cranial nerve glioma cell U87.

[3] = small-molecule concentration of the inhibitor 20 μM, GLMSD

SMILES	median survival time (U87MG tumor)	inhibitory effect on the HK2 (hexokinase 2 (HK2))	inhibitory effect on U87 [2]	inhibition at 20 µM (hexokinase 2 (HK2); [3])	further results
O=C(O)C(=O)CBr [3-BP, 3-bromopyruvic acid, reference compound]	17 days				
COc1ccc(CN2CCNCC2)c(OC)c1OC [TMZ, Trimetazidine, reference compound]	35 days				AUC(0-t) ([1]; read-out: AUC0-24 h): 247 µg·h/mL; Cmax ([1]; read-out: Cmax): 33700 ng/mL; half-life ([1]; read-out: T1/2 (converted)): 103 min; Tmax ([1]; read-out: Tmax): 30 min; glioma growth / survival rate, bioluminescence tracking (U87MG tumor; in situ U87-luciferase mice, compared with PBS): delays the growth of glioma
COc1cccc(CNCCCn2ccnc2)c1OCc1ccc(F)cc1 [compound 8]		good inhibitory effects	inhibitory effects on U87		inhibition rate of HK2 activity (hexokinase 2 (HK2); [3]): 44%
Cc1c(CCC(=O)NC2CS(=O)(=O)CC2O)c(=O)oc2cc(O)ccc12 (stereo not shown) [compound 11]		good inhibition effect; also recorded: good inhibitory effects	inhibitory effects on U87	29%	
COc1ccccc1OCC(=O)NNC(=O)CCCC(=O)NNC(=O)COc1ccccc1OC [compound 21]		good inhibitory effects	inhibitory effects on U87	25%	
